Like-named read-outs stand apart in the source and are kept apart here.
Tests used:
PRMT5/MEP50 = PRMT5/MEP50 (Homo sapiens, UniProt O14744); assay: MTase-Glo methyl transferase assay, Method A (Histone H4 peptide, 1 µM MTA, 24 h pre-incubation); type: biochemical; design: made in house; settings: read-out: PRMT5 MTase Glo Ki (nM, Meth. A)
Procedure, shortened: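 Luminescent SAH detection (MTase-Glo) after a 2 h room-temperature methylation of 1 µM biotinylated H4 (1-21) peptide by 10 nM PRMT5/MEP50 with 5 µM SAM, in 50 mM Tris pH 8.0.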

HCT116 WT cells = assay: HCT116 proliferation assay, WT cells (CellTiter-Glo, 6 days); type: cell-based; settings: Homo sapiens, HCT-116, 144 h, read-out: Prolif_HCT116-WT IC50
Procedure, shortened: (§1)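 Luminescent viability signal was measured after continuous drug exposure. Before dosing, cells attached overnight (37° C, 5% CO2) in RPMI 1640 + 10% FBS. Dosing used 1:3 steps over 8 or 9 points, starting at 1 or 10 µM, with DMSO-only wells as control.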

HCT116 MTAP null cells = assay: HCT116 proliferation assay, MTAP null cells (CellTiter-Glo, 6 days); type: cell-based; settings: 144 h, read-out: Protif_ HCT116-MTAP null IC50
Procedure, shortened: as §1

Sequence of PRMT5/MEP50 (O14744 whole entry): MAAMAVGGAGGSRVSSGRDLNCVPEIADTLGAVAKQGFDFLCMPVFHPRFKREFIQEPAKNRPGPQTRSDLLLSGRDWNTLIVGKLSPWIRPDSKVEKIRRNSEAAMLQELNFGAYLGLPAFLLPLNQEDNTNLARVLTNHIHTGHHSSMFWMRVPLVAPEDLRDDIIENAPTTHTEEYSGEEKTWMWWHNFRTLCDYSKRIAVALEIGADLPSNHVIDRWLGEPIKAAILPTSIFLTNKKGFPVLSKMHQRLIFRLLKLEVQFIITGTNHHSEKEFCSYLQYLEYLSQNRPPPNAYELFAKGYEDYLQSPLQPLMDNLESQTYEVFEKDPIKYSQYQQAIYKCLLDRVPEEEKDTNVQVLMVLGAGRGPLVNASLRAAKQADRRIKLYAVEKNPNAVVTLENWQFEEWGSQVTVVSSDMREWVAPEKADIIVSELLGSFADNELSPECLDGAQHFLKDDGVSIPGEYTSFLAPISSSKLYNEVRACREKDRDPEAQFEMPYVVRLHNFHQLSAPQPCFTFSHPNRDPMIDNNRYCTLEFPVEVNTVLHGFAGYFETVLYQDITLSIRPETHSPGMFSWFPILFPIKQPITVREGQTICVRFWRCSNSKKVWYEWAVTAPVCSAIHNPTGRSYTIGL
Sequence of PRMT5/MEP50 (Q9BQA1 whole entry partner): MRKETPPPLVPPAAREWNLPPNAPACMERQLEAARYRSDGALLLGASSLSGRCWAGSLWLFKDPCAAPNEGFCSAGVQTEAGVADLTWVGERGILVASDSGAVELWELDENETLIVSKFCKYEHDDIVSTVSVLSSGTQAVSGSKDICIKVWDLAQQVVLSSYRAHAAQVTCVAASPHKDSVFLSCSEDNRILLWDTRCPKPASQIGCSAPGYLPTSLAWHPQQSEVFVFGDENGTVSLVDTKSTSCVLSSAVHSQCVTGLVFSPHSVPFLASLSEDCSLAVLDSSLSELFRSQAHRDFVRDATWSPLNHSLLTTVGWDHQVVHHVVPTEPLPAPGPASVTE

Structure (SMILES) | Ki (PRMT5/MEP50) [nM] | IC50 (HCT116 WT cells) [nM] | IC50 (HCT116 MTAP null cells; HCT116-MTAP null) [nM] | IC50 (HCT116 MTAP null cells) [nM]
Nc1nc2ccc(C(=O)N(Cc3ccc(C(F)(F)F)cn3)Cc3ncccn3)cc2cc1Br [Example 317, 2-amino-3-bromo-N-(2-pyrimidinylmethyl)-N-((5-(trifluoromethyl)-2-pyridinyl)methyl)-6-quinolinecarboxamide] | 0.56 | > 10000 | 612 | 
Cc1cc2cc(C(=O)N(Cc3ccc(C(F)(F)F)cn3)CC(C)C)ncc2nc1N [Example 313, 2-amino-3-methyl-N-(2-methylpropyl)-N-((5-(trifluoromethyl)-2-pyridinyl)methyl)-1,7-naphthyridine-6-carboxamide] | 0.98 | > 10000 |  | 902
Cc1cc2cc(C(=O)N(Cc3ccc(C(F)(F)F)cn3)CC(C)C)c(F)cc2nc1N [Example 314, 2-amino-7-fluoro-3-methyl-N-(2-methylpropyl)-N-((5-(trifluoromethyl)-2-pyridinyl)methyl)-6-quinolinecarboxamide] | 0.35 | 5130 |  | 218
COCCN(Cc1ccc(C(F)(F)F)cn1)C(=O)c1ccc2nc(N)c(C)cc2c1 [Example 370, 2-amino-N-(2-methoxyethyl)-3-methyl-N-((5-(trifluoromethyl)-2-pyridinyl)methyl)-6-quinolinecarboxamide] | 0.79 | 5620 | 194 | 
Cc1cc2cc(C(=O)N(Cc3ccc(Br)nn3)[C@H](C)c3ncccn3)ccc2nc1N (single isomer, unassigned) [Example 450] | 0.13 | 2020 | 45 | 
Nc1nc2ncc(C(=O)N(Cc3ccc(C(F)(F)F)cn3)[C@@H](c3ncccn3)C3CC3)cc2cc1Br [Example 373, 7-amino-6-bromo-N-((R)-cyclopropyl(2-pyrimidinyl)methyl)-N-((5-(trifluoromethyl)-2-pyridinyl)methyl)-1,8-naphthyridine-3-carboxamide] | 0.03 | 1370 | 159 | 
C[C@H](c1ncccn1)N(Cc1ccc(C(F)(F)F)cn1)C(=O)c1ccc2nc(N)c(Br)cc2c1 [Example 434, 2-amino-3-bromo-N-((1R)-1-(2-pyrimidinyl)ethyl)-N-((5-(trifluoromethyl)-2-pyridinyl)methyl)-6-quinolinecarboxamide] | < 0.1 | 2420 | 49 | 
C[C@H](c1ncccn1)N(Cc1ccc(C(F)F)cn1)C(=O)c1cnc2nc(N)c(Cl)cc2c1 [Example 379] | 0.89 | > 10000 | 541 | 
Cc1cc2cc(C(=O)N(Cc3ccc(C(F)(F)F)cn3)[C@H](C)c3ccc(Cl)cn3)ccc2nc1N [Example 428, 2-amino-N-((1R)-1-(5-chloro-2-pyridinyl)ethyl)-3-methyl-N-((5-(trifluoromethyl)-2-pyridinyl)methyl)-6-quinolinecarboxamide] | 0.08 | 3680 | 188 | 
Cc1cc2cc(C(=O)N(Cc3ccc(Cl)cn3)[C@H](C)c3ncccn3)c(F)cc2nc1N [Example 415, 2-amino-N-((5-chloro-2-pyridinyl)methyl)-7-fluoro-3-methyl-N-((1R)-1-(2-pyrimidinyl)ethyl)-6-quinolinecarboxamide] | 0.54 | 490 | 39 | 
Cc1cc2cc(C(=O)N(Cc3ccc(C(F)(F)F)cn3)C[C@@H](C)C(F)(F)F)ccc2nc1N (single isomer, unassigned) [Example 457] | 0.78 | > 10000 |  | 717
Cc1cc2cc(C(=O)N(Cc3ccc(C(F)(F)F)cn3)[C@H](C)C3CC3)ccc2nc1N [Example 309, 2-amino-N-((1R)-1-cyclopropylethyl)-3-methyl-N-((5-(trifluoromethyl)-2-pyridinyl)methyl)-6-quinolinecarboxamide] | 2.35 | 7440 | 644 | 
Cc1cc(C(F)(F)F)ccc1CN(Cc1ncccc1F)C(=O)c1ccc2nc(N)c(C)cc2c1 [Example 329, 2-amino-N-((3-fluoro-2-pyridinyl)methyl)-3-methyl-N-(2-methyl-4-(trifluoromethyl)benzyl)-6-quinolinecarboxamide] | 0.13 | 3900 | 128 | 
CO[C@H](CN(Cc1ccc(C(F)(F)F)cn1)C(=O)c1ccc2nc(N)c(C)cc2c1)C(F)(F)F (single isomer, unassigned) [Example 453] | 0.06 | 1720 | 65 | 
C[C@H](c1ncccc1F)N(Cc1ccc(C#N)cn1)C(=O)c1cnc2nc(N)c(Br)cc2c1 [Example 354, 7-amino-6-bromo-N-((5-cyano-2-pyridinyl)methyl)-N-((1R)-1-(3-fluoro-2-pyridinyl)ethyl)-1,8-naphthyridine-3-carboxamide] | 0.29 | > 10000 | 378 | 
Cc1cc2cc(C(=O)N(Cc3ccc(N4CC(F)(F)C4)cn3)[C@H](C)c3ncccn3)ccc2nc1N [Example 359, 2-amino-N-((5-(3,3-difluoro-1-azetidinyl)-2-pyridinyl)methyl)-3-methyl-N-((1R)-1-(2-pyrimidinyl)ethyl)-6-quinolinecarboxamide] | < 0.1 | 4740 | 208 | 

Now from value to molecule, other results behind:

Ki (PRMT5/MEP50) [nM] | IC50 (HCT116 WT cells) [nM] | IC50 (HCT116 MTAP null cells; HCT116-MTAP null) [nM] | Structure (SMILES) | IC50 (HCT116 MTAP null cells) [nM]
0.03 | 592 | 33 | COc1nc(C(F)(F)F)ccc1CN(C(=O)c1ccc2nc(N)c(C)cc2c1)[C@H](C)c1ncccn1 (single isomer, unassigned) [Example 469] | 
1.23 | 7780 | 322 | Cc1cc2cc(C(=O)N(Cc3ccc(C(F)(F)F)cn3)[C@@H]3CCCNC3=O)ccc2nc1N (single isomer, unassigned) [Example 461] | 
0.05 | 1360 | 49 | Cc1cc2cc(C(=O)N(Cc3ccc(Cl)cn3)[C@H](C)c3ncccn3)ccc2nc1N [Example 504, 2-amino-N-((5-chloro-2-pyridinyl)methyl)-3-methyl-N-((1R)-1-(2-pyrimidinyl)ethyl)-6-quinolinecarboxamide] | 
0.02 | 443 | 19 | Cc1cc2cc(C(=O)N(Cc3ccc(C4=CCN(C(=O)OC(C)(C)C)CC4)cn3)[C@H](C)c3ncccn3)ccc2nc1N [Example 547, tert-butyl (R)-6-((2-amino-3-methyl-N-(1-(pyrimidin-2-yl)ethyl)quinoline-6-carboxamido)methyl)-3’,6′-dihydro-[3,4′-bipyridine]-1′(2’H)-carboxylate] | 
0.1 | 1270 | 61 | Cc1cc2cc(C(=O)N(Cc3ccc(OC(F)F)cn3)[C@H](C)c3ncccn3)ccc2nc1N (single isomer, unassigned) [Example 491] | 
0.41 | 478 | 32 | Cc1c(N)nc2ccc(C(=O)N(Cc3ccc(C#N)cn3)[C@H](C)c3ncccn3)cc2c1C [Example 545, 2-amino-N-((5-cyano-2-pyridinyl)methyl)-3,4-dimethyl-N-((1R)-1-(2-pyrimidinyl)ethyl)-6-quinolinecarboxamide] | 
0.34 | > 10000 | 552 | C[C@H](c1ncn(C)n1)N(Cc1ccc(C(F)F)cn1)C(=O)c1cnc2nc(N)c(Br)cc2c1 (single isomer, unassigned) [Example 535] | 

Source: patent US20230159510A1, “NOVEL PRMT5 INHIBITORS” (AMGEN INC., priority 2020, published 2023)
